Results taken from patent publication US8076485B2, “Methylphenidate derivatives and uses of them” (priority 2005, dated 2011).

Assays:
[1] = tested on: TNFα; assay: TNFα release by PHA-stimulated PBL (ELISA); type: cell-based, human; conditions: Example 3, GR191 PBL, Cpd II 15 and 50 μg/ml, Dex 10 μM, 72 hours, FIG. 7
Method: (§1) After this incubation, PHA was added to give a final concentration of 5 μg/ml, and the cells were incubated for an additional 72 hours at 37° C., 5% CO2. All cultures were performed in triplicate. Cells were then removed by centrifugation at 1000 rpm for 10 minutes.
The TNFα ELISA was performed as described in Example 2 using matched pair antibodies from Pierce Endogen (2 μg/ml for the coating antibody and 250 ng/ml for the second antibody).

[2] = tested on: TCR-positive cells; assay: Annexin staining of TCR-positive cells (flow cytometry, cell death); type: cell-based, human; conditions: PHA 5 μg/ml plus 50 μg/ml; PHA alone 67%
Method: as §1
The cells were further analyzed by flow cytometry Annexin was used to determine populations of dead or dying cells. Anti-CD69 antibody was used to establish the level of cellular activation. Antibody to T-cell receptor αβ (TCR) was also used. Recombinant Annexin 5 (PE and FITC conjugates) and the antibodies were all purchase from Caltag (Burlingham, Calif.) and used following the manufacturer's recommendations.

[3] = tested on: HUVECs; assay: HUVEC proliferation (Promega cell titer assay); type: cell-based, human; conditions: 48 hours; for Mean OD at 530 nm: HUVECs
Method: Passage 4 HUVECs, lot number 9713, in either EGM-2 plus 50 ng/ml vascular endothelial growth factor (VEGF) (obtained from Sigma) or in EGM-2 complete medium (containing 2% FCS, hydrocortisone, human fibroblast growth factor B, VEGF, recombinant insulin-like growth factor-1, ascorbate, human […], gentamycin and heparin) (obtained from Cambrex) were put into the wells of a 96-well tissue culture plate at 5,000 cells/well. The following additives were added to the cells: water (vehicle control); 5 μg/ml of the compound of formula II (Cpd II); 15 μg/ml Cpd II; or 30 μg/ml of Cpd II. After 48 hours of culture at 37° C. and 5% CO2, cell proliferation was evaluated by the Promega cell titer assay as described in Example 1, except that the plates were incubated for only 2 hours after addition of the Promega cell titer reagent.

[4] = tested on: IL-8; assay: IL-8 release by LPS-stimulated HUVECs (ELISA); type: cell-based, human; conditions: 15 μg/ml
Method: Passage 4 HUVECs, lot number 9713, were put into the wells of a 48-well tissue culture plate at 20,000 cells/well in 500 μl of EGM-2 complete medium (but without serum or ascorbate) supplemented with ITSS (insulin, transferrin and sodium selenite) (obtained from Sigma). Also, passage 4 HUVECs, human source lot number 7016 (obtained from ATCC), were put into the wells of a 48-well tissue culture plate at 20,000 cells/well in 500 μl of EGM-2 complete medium (but without serum or ascorbate) supplemented with ITSS. The following additives were added to the cells: water (vehicle control) and 15 μg/ml of the compound of formula II (Cpd II). After incubation for 1 hour at 37° C. and 5% CO2, LPS was added to give a final concentration of 200 ng/ml, and the cells were incubated overnight at 37° C. and 5% CO2. After this incubation, the supernatants were collected, and the amount of IL-8 in the supernatants determined by ELISA as described in Example 4.

[5] = tested on: c-Jun; assay: c-Jun in VEGF-treated HUVECs (TransAM AP-1 assay); type: cell-based, human; conditions: Cpd II at 15 μg/ml and 5 μg/ml
Method: The amount of c-Jun was determined using a TransAM™ AP-1 Family Transcription Factor Assay Kit and a Nuclear Extract Kit from Active Motif North America, Carlsbad, Calif., according to manufacturer's instructions. Briefly, a nuclear extract of the cells was prepared using the Nuclear Extract Kit. Then, the nuclear extract was added to the wells of a 96-well plate in which oligonucleotide containing a TPA-responsive element (TRE) was immobilized. Activator protein-1 (AP-1) dimers contained in the nuclear extract were bound to this oligonucleotide and were detected using an antibody specific for c-Jun. A secondary antibody conjugated to horseradish peroxidase (HRP) was next added to provide a colorimetric readout that was quantified by spectrophotometry (measurement at 450 nm).

[6] = tested on: RAP-1; assay: RAP-1 activation pulldown assay in TRiPS cells; type: cell-based, human; conditions: 15 μg/ml
Method: Day 10 TRiPS cells, 1×10^6, were incubated with 15 μg/ml of the compound of formula II (Cpd II) for 1 hour at 37° C. Then, the cells were incubated with CD3/CD28 beads (1 μl per 100,000 cells) (obtained from Dynal) for 10 minutes at 37° C. The cells were then lysed with a mild buffer (supplied with Pierce EZ-Detect activation kit described below) to produce cell extracts. Protein concentrations of the resulting extracts were determined by bicinchoninic acid (BCA) assay (Pierce) and placed on ice for immediate use.
Pulldown assays were performed using Pierce EZ-Detect activation kits according to the manufacturer's instructions utilizing GST-RAF-1-RBD and GST-RalGDS-RBD for Ras and RAP-1 respectively. Briefly, 400 μg total protein from each extract was combined with recombinant protein and glutathione resin and incubated at 4° C. for one hour with gentle shaking The resin was then washed to remove unbound protein and the activated Ras and RAP-1 proteins were removed by boiling in the presence of SDS-PAGE loading dye containing reducing agent. Ras and RAP-1 western blots were performed to visualize the proteins using antibodies supplied with the kit. Densitometry of the X-ray films was done by scanning and computer analysis.

[7] = mice; cited from earlier work

SMILES	release of TNFα from PHA-stimulated PBL [1]	Annexin staining of TCR-positive cells (cell death) [2] [%]	number of cells detected in the wells ([3]; HUVECs, 5, 15, 30 μg/ml)	Mean OD at 530 nm ([3]; EGM-2 + VEGF, 5 μg/ml, vehicle 0.224 ± 0.011)	Mean OD at 530 nm ([3]; EGM-2 + VEGF, 15 μg/ml, vehicle 0.224 ± 0.011)	Mean OD at 530 nm ([3]; EGM-2 + VEGF, 30 μg/ml, vehicle 0.224 ± 0.011)	Mean OD at 530 nm ([3]; EGM-2 + growth factors, 5 μg/ml, vehicle 0.299 ± 0.011)	Mean OD at 530 nm ([3]; EGM-2 + growth factors, 15 μg/ml, vehicle 0.299 ± 0.011)	Mean OD at 530 nm ([3]; EGM-2 + growth factors, 30 μg/ml, vehicle 0.299 ± 0.011)	IL-8 (pg/ml) ([4]; 7016 HUVECs, LPS 200 ng/ml overnight, LPS only 53.3)	IL-8 release ([4]; 7016 HUVECs, LPS 200 ng/ml)	decrease of IL-8 release ([4]; 9713 HUVECs, LPS 200 ng/ml) [%]	increase in the amount of c-Jun [5]	inhibition of RAP-1 [6]	carcinogenicity [7]
COC(=O)C(c1ccc(-c2ccccc2)cc1)C1CCCCN1 (stereo not drawn) [Cpd II]	significantly inhibited the release of TNFα	87	reduced the number of cells detected in the wells in a dose-dependent manner	0.189 ± 0.014	0.132 ± 0.022	0.046 ± 0.012	0.271 ± 0.022	0.239 ± 0.019	0.066 ± 0.003	Below detection	complete eliminated IL-8 release	90	completely eliminated the increase in the amount of c-Jun	appeared to inhibit RAP-1	–
COC(=O)C(c1ccccc1)C1CCCCN1 (stereo not drawn) [methylphenidate]	–	–	–	–	–	–	–	–	–	–	–	–	–	–	some evidence that methylphenidate is carcinogenic in mice
